Test results published in patent US11186589B2, “Cyanoindoline derivatives as NIK inhibitors” (Janssen Pharmaceutica NV, priority 2016, dated 2021).
Like-named read-outs stand apart in the source and are kept apart here.

What was measured:
[1] = biological target: NIK/MAP3K14 (Homo sapiens (Human), UniProt Q99558); assay: Inhibition of auto-phosphorylation of recombinant human NF-kappaB-inducing kinase (NIK/MAP3K14) activity (AlphaScreen); assay type: biochemical; details: averaged values over all measurements on all batches, 25 microM ATP
NIK/MAP3K14, sequence (Q99558 whole entry): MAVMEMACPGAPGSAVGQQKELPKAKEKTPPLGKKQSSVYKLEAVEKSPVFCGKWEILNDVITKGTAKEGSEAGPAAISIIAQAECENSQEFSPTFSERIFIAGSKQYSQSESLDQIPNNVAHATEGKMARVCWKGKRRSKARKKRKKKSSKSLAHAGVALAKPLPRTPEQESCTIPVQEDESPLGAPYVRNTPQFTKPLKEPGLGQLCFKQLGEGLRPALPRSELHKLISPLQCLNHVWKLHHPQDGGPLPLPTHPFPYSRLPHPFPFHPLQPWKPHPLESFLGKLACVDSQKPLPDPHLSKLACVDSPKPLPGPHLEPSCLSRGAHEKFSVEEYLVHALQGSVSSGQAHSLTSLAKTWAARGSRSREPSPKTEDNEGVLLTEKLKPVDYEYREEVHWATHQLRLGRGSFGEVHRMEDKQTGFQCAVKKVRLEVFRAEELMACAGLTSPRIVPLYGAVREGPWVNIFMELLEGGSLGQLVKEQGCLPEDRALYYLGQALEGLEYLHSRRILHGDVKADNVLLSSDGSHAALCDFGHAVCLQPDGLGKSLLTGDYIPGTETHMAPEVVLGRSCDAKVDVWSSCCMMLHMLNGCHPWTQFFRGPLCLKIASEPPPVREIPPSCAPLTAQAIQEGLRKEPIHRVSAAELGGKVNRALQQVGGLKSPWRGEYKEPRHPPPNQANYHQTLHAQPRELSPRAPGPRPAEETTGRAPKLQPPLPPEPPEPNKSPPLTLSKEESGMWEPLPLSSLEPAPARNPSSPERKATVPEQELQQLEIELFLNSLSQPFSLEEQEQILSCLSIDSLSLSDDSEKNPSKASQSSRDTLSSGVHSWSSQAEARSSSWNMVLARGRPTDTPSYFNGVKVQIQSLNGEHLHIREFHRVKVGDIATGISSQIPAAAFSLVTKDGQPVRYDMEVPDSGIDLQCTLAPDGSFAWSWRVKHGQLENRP
Method: Inhibition of Auto-Phosphorylation of Recombinant Human NF-kappaB-Inducing Kinase ([…]) Activity (AlphaScreen®)
NIK/MAP3K14 auto-phosphorylation activity was measured using the AlphaScreen® (αscreen) format (Perkin Elmer). All compounds tested were dissolved in dimethyl sulfoxide (DMSO) and further dilutions were made in assay buffer. Final DMSO concentration was […] in assays. Assay buffer was 50 mM Tris pH 7.5 containing 1 mM EGTA (ethylene glycol tetraacetic acid), 1 mM DTT (dithiothreitol), 0.1 mM Na3VO4, 5 mM MgCl2, 0.01% Tween® 20. Assays were carried out in 384 well Alphaplates (Perkin Elmer). Incubations consisted of compound, 25 microM Adenosine-5′-triphosphate (ATP), and 0.2 nM NIK/MAP3K14. Incubations were initiated by addition of GST-tagged NIK/MAP3K14 enzyme, carried out for 1 h at 25° C. and terminated by addition of stop buffer containing anti-phospho-[…] Ser176/180 antibody. Protein A Acceptor and Glutathione-Donor beads were added before reading using an EnVision® Multilabel Plate Reader (Perkin Elmer). Signal obtained in the wells containing blank samples was subtracted from all other wells and IC50's were determined by fitting a sigmoidal curve to % inhibition of control versus Log10 compound concentration.

[2] = tested on: P-IKKα levels in L363 cells; assay: Effect of compounds on P-IKKα levels in L363 (NIK translocated multiple myeloma) cells; assay type: cell-based, human; details: 2 hr treatment, averaged values, read-out: Inhibition of pIKKα_L-363 (IC50 (nM))
Method: Effect of Compounds on P-IKKα Levels in L363 (NIK Translocated Multiple Myeloma) Cells
All compounds tested were dissolved in DMSO and further dilutions were made in culture medium. Final DMSO concentration was 1% (v/v) in cell assays. The human L363 cells (ATCC) were cultured in RPMI 1640 medium supplemented with GlutaMax and 10% fetal calf serum (PAA). Cells were routinely maintained at densities of 0.2×10^6 cells per ml—1×10^6 cells per ml at 37° C. in a humidified 5% CO2 atmosphere. Cells were passaged twice a week splitting back to obtain the low density. Cells were seeded in 96 well plates (Nunc 167008) at 2×10^6 per ml media in a volume of 75 μl per well plus 25 μl 1 μg/ml recombinant human B-cell activating factor (BAFF/BLyS/TNFSF13B). Seeded cells were incubated at 37° C. in a humidified 5% CO2 atmosphere for 24 hr. Drugs and/or solvents were added (20 μl) to a final volume of 120 μl. Following 2 hr treatment plates were removed from the incubator and cell lysis was achieved by the addition of 30 μl 5× lysis buffer followed by shaking on a plate shaker at 4° C. for 10 min. At the end of this incubation lysed cells were centrifuged at 800×g for 20 min at 4° C. and the lysate was assessed for P-IKKα levels by sandwich immuno-assay carried out in anti-rabbit antibody coated Mesoscale plates. Within an experiment, the results for each treatment were the mean of 2 replicate wells. For initial screening purposes, compounds were tested using an 8 point dilution curve (serial 1:3 dilutions). For each experiment, controls (containing MG132 and BAFF but no test drug) and a blank incubation (containing MG132 and BAFF and 10 μM ADS125117, a test concentration known to give full inhibition) were run in parallel. The blank incubation value was subtracted from all control and sample values. To determine the IC50 a sigmoidal curve was fitted to the plot of % inhibition of control P-IKKα levels versus Log10 compound concentration.

[3] = tested on: KMS12-BM cells; assay: Antiproliferative activity on KMS12-BM (NIK WT) multiple myeloma cells (CellTiter-Glo); assay type: cell-based, human; details: 96 hr treatment, averaged values, read-out: KMS-12 Proliferation inhibition (IC50 (nM))
Method: (§1) Determination of Antiproliferative Activity on JJN-3 (NIK Translocated) and KMS12-BM (NIK WT) Multiple Myeloma Cells
(§2) All compounds tested were dissolved in DMSO and further dilutions were made in culture medium. Final DMSO concentration was 0.3% (v/v) in cell proliferation assays. Viability was assessed using CellTiter-Glo cell viability assay kit (Promega). The human JJN-3 and KMS12-BM cells (DSMZ) were cultured in RPMI 1640 medium supplemented with 2 mM L-glutamine, and 10% fetal calf serum (PAA). Cells were routinely kept as suspension cells at 37° C. in a humidified 5% CO2 atmosphere. Cells were passaged at a seeding density of 0.2×10^6/ml twice a week. Cells were seeded in black tissue culture treated 96-well plates (Perkin Elmer). Densities used for plating ranged from 15000 (JJN3) to 20000 (KMS12BM) cells per well in a total volume of […]. Drugs and/or solvents were added (15 μl) to a final volume of 150 μl. Following 96 hr of treatment, plates were removed from the incubator and allowed to equilibrate to room temperature for approx 10 min. 75 μl CellTiter-Glo reagent was added to each well that was then covered (Perkin Elmer Topseal) and shaken on plate shaker for 10 min. Luminescence was measured on a HTS Topcount (Perkin Elmer). Within an experiment, the results for each treatment were the mean of 2 replicate wells. For initial screening purposes, compounds were tested using a 9 point dilution curve (serial 1:3 dilutions). For each experiment, controls (containing no drug) and a blank incubation (containing cells read at the time of compound addition) were run in parallel. The blank value was subtracted from all control and sample values. For each sample, the mean value for cell growth (in relative light units) was expressed as a percentage of the mean value for cell growth of the control.

[4] = tested on: JJN-3 cells; assay: Antiproliferative activity on JJN-3 (NIK translocated) multiple myeloma cells (CellTiter-Glo); assay type: cell-based, human; details: JJN-3 (NIK translocated) cells, 96 hr treatment, averaged values, read-out: JJN-3 Proliferation inhibition (IC50 (nM))
Method: as §1, §2

Row | Structure (SMILES) | IC50 [1] [nM] | IC50 ([2]; Homo sapiens, L-363, 2 h) [nM] | IC50 ([3]; Homo sapiens, KMS-12-BM, 96 h) [nM] | IC50 ([4]; Homo sapiens, JJN-3, 96 h) [nM] | IC50 [2] [nM] | IC50 [3] [nM] | IC50 [4] [nM]
1 | CN1CCc2cc(CCC3CC3)c(Nc3nccc(-c4cc(C#N)c5c(c4)[C@@](C)(CO)CN5)n3)cc2CC1 (mixture of isomers) [Compound 26] | 5.1 | 501 | ~525 | 692 | – | – | –
2 | CCCCCc1cc2c(cc1Nc1nccc(-c3cc(C#N)c4c(c3)[C@@](C)(CO)CN4)n1)CCN(C)CC2 (mixture of isomers) [Compound 27] | 7.1 | ~1200 | 1380 | 871 | – | – | –
3 | C[C@]1(CO)CNc2c(C#N)cc(-c3ccnc(Nc4cc5c(nc4C#CC4CC4)CCOC5)n3)cc21 [Compound 22] | 2240 | > 10000 | – | – | – | – | –
4 | CN1CCc2nc(OCC3CC3)c(Nc3nccc(-c4cc(C#N)c5c(c4)[C@@](C)(CO)CN5)n3)cc2C1 [Compound 35] | 4.3 | 69 | – | – | – | – | –
5 | CC(=O)N1CCc2c1ccc(Nc1nccc(-c3cc(C#N)c4c(c3)C(C)(CO)CN4)n1)c2F (stereo not shown) [Compound 36] | 3.7 | 16 | – | – | – | – | –
6 | CC1(CO)CNc2c(C#N)cc(-c3ccnc(Nc4ccc5c(c4F)CCN5)n3)cc21 (stereo not shown) [Compound 37] | 4.3 | 9 | – | – | – | – | –
7 | CN(C)CC(=O)N1CCc2c1ccc(Nc1nccc(-c3cc(C#N)c4c(c3)C(C)(CO)CN4)n1)c2F (stereo not shown) [Compound 38] | 3.4 | 12 | – | – | – | – | –
8 | COc1cc2c(cc1Nc1nccc(-c3cc(C#N)c4c(c3)C(C)(CO)CN4)n1)CCN2C(C)=O (stereo not shown) [Compound 39] | 2.5 | 3 | – | – | – | – | –
9 | COc1cc2c(cc1Nc1nccc(-c3cc(C#N)c4c(c3)C(C)(CO)CN4)n1)CCN2C(=O)CN(C)C (stereo not shown) [Compound 40] | 4.3 | 3 | – | – | – | – | –
10 | Cc1c(Nc2nccc(-c3cc(C#N)c4c(c3)C(C)(CO)CN4)n2)ccc2c1CC(=O)N2 (stereo not shown) [Compound 42] | 8.9 | – | – | – | 36 | – | –
11 | CN(C)C(=O)C1Cc2cc(Nc3nccc(-c4cc(C#N)c5c(c4)C(C)(C)CN5)n3)ccc2N1 (stereo not shown) [Compound 43] | 6.6 | 5 | – | – | – | – | –
12 | C[C@]1(CO)CNc2c(C#N)cc(-c3ccnc(Nc4cc5c(nc4OC4CCCC4)CCOC5)n3)cc21 [Compound 47] | 35.5 | 51 | – | – | – | – | –
13 | CC(C)Oc1nc2c(cc1Nc1nccc(-c3cc(C#N)c4c(c3)[C@@](C)(CO)CN4)n1)CN(C1CC1)CC2 [Compound 49] | 34.7 | 115 | – | – | – | – | –
14 | COc1nc2c(cc1Nc1nccc(-c3cc(C#N)c4c(c3)[C@@](C)(CO)CN4)n1)CCN(C)C2 [Compound 53] | – | 1 | ~468 | 12 | – | – | –
15 | CN1CCc2ncc(Nc3ncc(F)c(-c4cc(C#N)c5c(c4)[C@@](C)(CO)CN5)n3)cc2C1 [Compound 54] | – | 2 | ~9 | ~7 | – | – | –
16 | COc1cc2c(cc1Nc1nccc(-c3cc(C#N)c4c(c3)C(C)(CO)CN4)n1)NC(=O)CC2 (stereo not shown) [Compound 59] | 12.9 | 37 | – | – | – | – | –

Other lines, results leading:

Row | IC50 [1] [nM] | IC50 ([2]; Homo sapiens, L-363, 2 h) [nM] | IC50 ([3]; Homo sapiens, KMS-12-BM, 96 h) [nM] | IC50 ([4]; Homo sapiens, JJN-3, 96 h) [nM] | IC50 [2] [nM] | IC50 [3] [nM] | IC50 [4] [nM] | Structure (SMILES)
17 | 5 | 63 | ~7760 | ~2140 | – | – | – | CC1(CO)COc2c(Nc3nccc(-c4cc(C#N)c5c(c4)[C@@](C)(CO)CN5)n3)cnn2C1 (mixture of isomers) [Compound 31b]
18 | 6.2 | – | – | – | 2 | – | – | CC1CC(C)n2ncc(Nc3nccc(-c4cc(C#N)c5c(c4)C(C)(CO)CN5)n3)c2O1 (racemic) [Compound 20b]
19 | 5.9 | – | 2510 | 269 | 5 | – | – | CC1CC(C)n2ncc(Nc3nccc(-c4cc(C#N)c5c(c4)C(C)(CO)CN5)n3)c2O1 (racemic) [Compound 21b]
20 | 2.8 | 2 | – | 58 | – | ~2820 | – | CC1CCn2ncc(Nc3nccc(-c4cc(C#N)c5c(c4)[C@@](C)(CO)CN5)n3)c2O1 (single isomer, unassigned) [Compound 1b]
21 | 2 | – | – | – | 4 | > 10000 | 93 | CC1CCn2ncc(Nc3nccc(-c4cc(C#N)c5c(c4)[C@@](C)(CO)CN5)n3)c2O1 (single isomer, unassigned) [Compound 2b]
22 | 7.1 | 3 | – | – | – | > 10000 | 166 | CC(C)C1CCn2ncc(Nc3nccc(-c4cc(C#N)c5c(c4)[C@@](C)(CO)CN5)n3)c2O1 (single isomer, unassigned) [Compound 22b]
23 | 6.9 | – | – | – | 2 | ~2240 | 45 | CC(C)C1CCn2ncc(Nc3nccc(-c4cc(C#N)c5c(c4)[C@@](C)(CO)CN5)n3)c2O1 (single isomer, unassigned) [Compound 23b]
24 | 3.9 | – | > 10000 | – | 6 | – | 85 | CC1CCCn2ncc(Nc3nccc(-c4cc(C#N)c5c(c4)[C@@](C)(CO)CN5)n3)c2O1 (single isomer, unassigned) [Compound 29b]
25 | 5.2 | – | – | – | 13 | > 10000 | 263 | CC1CCCn2ncc(Nc3nccc(-c4cc(C#N)c5c(c4)[C@@](C)(CO)CN5)n3)c2O1 (single isomer, unassigned) [Compound 30b]
26 | 30.2 | 23 | 1380 | 26 | – | – | – | CNC(=O)CCn1ccc2c(Nc3nccc(-c4cc(C#N)c5c(c4)C(C)(C)CN5)n3)cc(Cl)cc21 [Compound 1c]
27 | – | 72 | > 10000 | 537 | – | – | – | CC1(C)CNc2c(C#N)cc(-c3ccnc(Nc4cc(Cl)cc5[nH]ccc45)n3)cc21 [Compound 7c]
28 | 10.5 | 14 | – | – | – | – | – | CN(C)C(=O)c1cc2cc(Nc3nccc(-c4cc(C#N)c5c(c4)C(C)(C)CN5)n3)ccc2[nH]1 [Compound 12c]
29 | 6.2 | 3 | – | – | – | – | – | COc1cc2[nH]ccc2cc1Nc1nccc(-c2cc(C#N)c3c(c2)C(C)(CO)CN3)n1 (stereo not shown) [Compound 13c]
30 | 5.9 | 8 | – | – | – | – | – | CC1OCCn2nc(Nc3nccc(-c4cc(C#N)c5c(c4)C(C)(C)CN5)n3)cc21 (stereo not shown) [Compound 32b]
